This assay has as its target hNav1.7 (Homo sapiens (Human), UniProt Q15858). Kind of assay: Tritiated compound binding to membranes from cells expressing hNav1.7 and the β1 subunit, competitive binding (LBA, Ex. 243A). The conditions noted are these: 100 pM [3H]compound, 18 h, room temperature. As for the experimental part:
Tritiated Compound Binding to Membranes Isolated from Cells that Heterologously Express hNav1.7 and the β1 Subunit
Preparation of membranes containing recombinantly expressed sodium channels: Frozen recombinant cell pellets were thawed on ice and diluted to 4 times the cell pellet weight with ice cold 50 mM Tris HCl, pH 7.4 buffer. The cell suspensions were homogenized on ice using a motorized glass dounce homogeniser. Homogenates were further diluted 8.4 times with ice cold 50 mM Tris HCl, pH 7.4 buffer and then centrifuged at 200×g at 4° C. for 15 min. The supernatants were collected and centrifuged at 10000×g at 4° C. for 50 min. […] The homogenized membranes were then processed through a syringe equipped with a 26 gauge needle. Protein concentrations were determined by Bradford Assay and the membranes were stored at −80° C.
Radioligand Binding Studies: Saturation experiments. A competitive NaV1.7 inhibitor having a methyl group was tritiated. Three tritiums were incorporated in place of methyl hydrogens to generate [^3H]compound. Binding of this radioligand was performed in 5 mL borosilicate glass test tubes at room temperature. […] Non-specific binding was determined in the presence of 1 μM unlabeled compound. After 18h, the reactants were filtered through GF/C glass fiber filters presoaked in 0.5% w/v polyethylene imine. […] [^3H]compound bound to filters was quantified by liquid scintillation counting.
Competitive binding experiments: Binding reactions were performed in 96-well polypropylene plates at room temperature for 18h. In 360 μL, membranes were incubated with 100 pM [^3H]compound and increasing concentrations of Test Compound. Non-specific binding was defined in the presence of 1 μM unlabeled compound. Reactions were transferred and filtered through 96-well glass fiber/C filter plates presoaked with 0.5% polyethylene imine. The filtered reactions were washed 5 times with 200 μL ice cold buffer containing 0.25% BSA. Bound radioactivity was determined by liquid scintillation counting.
Data Analysis: For saturation experiments, non-specific binding was subtracted from total binding to provide specific binding and these values were recalculated in terms of pmol ligand bound per mg protein. Saturation curves were constructed and dissociation constants were calculated using the single site ligand binding model: Beq=(Bmax*X)/(X+Kd), where Beq is the amount of ligand bound at equilibrium, Bmax is the maximum receptor density, Kd is the dissociation constant for the ligand, and X is the free ligand concentration. For competition studies percent inhibition was determined and IC50 values were calculated using a 4 parameter logistic model (% inhibition=(A+((B−A)/(1+((x/C)^D)))) using XLfit, where A and B are the maximal and minimum inhibition respectively, C is the IC50 concentration and D is the (Hill) slope.

Where [1] appears, read: read-out: Nav1.7 LBA (Ex. 243A) IC50.
Setting [2] is: read-out: Nav1.7 (LBA) (Ex. 243A).

Where a name gives a salt, the structure may show the parent alone. Read-outs that look alike come from different tables or passages of the source.

Sequence of hNav1.7 (Q15858 whole entry, looked up): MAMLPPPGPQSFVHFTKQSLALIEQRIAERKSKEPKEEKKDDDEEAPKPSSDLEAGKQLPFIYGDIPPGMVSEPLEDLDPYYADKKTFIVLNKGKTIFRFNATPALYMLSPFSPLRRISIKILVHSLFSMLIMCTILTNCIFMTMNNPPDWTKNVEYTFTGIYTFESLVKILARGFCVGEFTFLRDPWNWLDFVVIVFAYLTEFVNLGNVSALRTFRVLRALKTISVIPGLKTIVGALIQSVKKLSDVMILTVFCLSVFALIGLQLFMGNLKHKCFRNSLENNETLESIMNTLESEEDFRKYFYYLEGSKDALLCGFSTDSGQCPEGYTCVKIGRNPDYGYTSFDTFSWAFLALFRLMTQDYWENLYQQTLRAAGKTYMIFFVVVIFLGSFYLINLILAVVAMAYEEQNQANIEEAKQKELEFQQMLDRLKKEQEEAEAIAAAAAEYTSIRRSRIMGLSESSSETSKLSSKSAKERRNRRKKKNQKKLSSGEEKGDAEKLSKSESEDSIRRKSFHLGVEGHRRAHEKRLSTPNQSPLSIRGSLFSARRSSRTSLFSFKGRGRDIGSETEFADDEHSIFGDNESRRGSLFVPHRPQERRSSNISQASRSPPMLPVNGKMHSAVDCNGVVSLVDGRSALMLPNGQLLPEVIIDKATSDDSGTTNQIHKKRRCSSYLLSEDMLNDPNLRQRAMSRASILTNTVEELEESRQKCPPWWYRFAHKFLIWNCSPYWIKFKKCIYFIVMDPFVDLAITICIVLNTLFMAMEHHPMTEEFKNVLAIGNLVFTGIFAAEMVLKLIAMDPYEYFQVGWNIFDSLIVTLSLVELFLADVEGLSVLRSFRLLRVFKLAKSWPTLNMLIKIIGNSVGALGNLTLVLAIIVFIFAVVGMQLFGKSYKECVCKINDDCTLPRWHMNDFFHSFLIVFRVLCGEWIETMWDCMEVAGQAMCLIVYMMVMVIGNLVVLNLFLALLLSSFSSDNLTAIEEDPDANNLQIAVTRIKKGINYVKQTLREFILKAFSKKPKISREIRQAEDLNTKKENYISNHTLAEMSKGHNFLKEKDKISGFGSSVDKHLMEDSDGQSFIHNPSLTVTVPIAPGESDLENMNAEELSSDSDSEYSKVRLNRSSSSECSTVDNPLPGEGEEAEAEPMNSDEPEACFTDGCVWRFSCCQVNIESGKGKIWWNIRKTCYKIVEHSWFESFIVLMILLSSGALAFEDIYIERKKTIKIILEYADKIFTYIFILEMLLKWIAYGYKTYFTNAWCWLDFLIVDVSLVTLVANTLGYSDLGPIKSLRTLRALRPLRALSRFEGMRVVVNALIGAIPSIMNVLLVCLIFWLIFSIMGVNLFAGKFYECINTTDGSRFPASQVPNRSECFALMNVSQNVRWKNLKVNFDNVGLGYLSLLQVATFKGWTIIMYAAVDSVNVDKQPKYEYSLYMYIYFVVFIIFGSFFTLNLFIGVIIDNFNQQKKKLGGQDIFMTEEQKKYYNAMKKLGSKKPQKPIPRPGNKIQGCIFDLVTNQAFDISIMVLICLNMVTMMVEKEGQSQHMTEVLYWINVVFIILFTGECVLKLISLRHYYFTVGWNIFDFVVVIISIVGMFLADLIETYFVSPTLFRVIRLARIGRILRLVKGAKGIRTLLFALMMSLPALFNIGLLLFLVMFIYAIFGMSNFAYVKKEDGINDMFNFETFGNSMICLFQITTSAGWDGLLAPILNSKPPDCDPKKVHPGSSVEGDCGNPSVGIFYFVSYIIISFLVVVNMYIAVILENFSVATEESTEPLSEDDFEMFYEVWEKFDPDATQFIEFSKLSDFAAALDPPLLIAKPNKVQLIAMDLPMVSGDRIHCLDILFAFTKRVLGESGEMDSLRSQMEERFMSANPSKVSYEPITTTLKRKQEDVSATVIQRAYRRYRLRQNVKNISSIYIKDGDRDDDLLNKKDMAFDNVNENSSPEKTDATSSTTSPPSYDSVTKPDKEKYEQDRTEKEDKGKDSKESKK
Sequence of hNav1.7 (Q07699 whole entry partner, looked up): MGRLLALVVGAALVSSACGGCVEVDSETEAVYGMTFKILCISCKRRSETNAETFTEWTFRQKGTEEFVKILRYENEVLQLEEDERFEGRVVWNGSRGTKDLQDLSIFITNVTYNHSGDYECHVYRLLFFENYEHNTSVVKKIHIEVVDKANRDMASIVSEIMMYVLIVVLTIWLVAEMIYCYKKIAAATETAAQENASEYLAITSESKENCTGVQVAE

Regarding `CN[C@H]1CCCC[C@@H]1Nc1cc(F)c(S(=O)(=O)Nc2nccs2)cc1C1CC1` [Example 51, 5-cyclopropyl-2-fluoro-4-(((1S,2S)-2-(methylamino)cyclohexyl)amino)-N-(thiazol-2-yl)benzenesulfonamide formate], the IC50 under setting [1] worked out at 75.6 nM.

Regarding `CN(C)[C@H]1CCCC[C@@H]1Nc1cc(F)c(S(=O)(=O)Nc2nccs2)cc1C1CC1` [Example 15, 5-cyclopropyl-4-[[(1S,2S)-2-(dimethylamino)cyclohexyl]amino]-2-fluoro-N-thiazol-2-yl-benzenesulfonamide], the IC50 under setting [2] is 26.9 nM.

For `CNC(=O)CN(C)[C@H]1CCCC[C@@H]1Nc1cc(F)c(S(=O)(=O)Nc2nccs2)cc1Cl` [Example 80, 2-(((1S,2S)-2-((2-chloro-5-fluoro-4-(N-(thiazol-2-yl)sulfamoyl)phenyl)amino)cyclohexyl)(methyl)amino)-N-methylacetamide formate], the IC50 under setting [1] was 122 nM.

In the case of `CN(C)[C@@H]1CC=C(C(F)(F)F)C[C@H]1Nc1cc(F)c(S(=O)(=O)Nc2nccs2)cc1Cl` [Example 48, 5-chloro-4-(((1R,6R)-6-(dimethylamino)-3-(trifluoromethyl)cyclohex-3-en-1-yl)amino)-2-fluoro-N-(thiazol-2-yl)benzenesulfonamide formate], under setting [1], the IC50 is 127 nM.

On to `CCN[C@@H]1CCCC[C@H]1Oc1cc(F)c(S(=O)(=O)Nc2nccs2)cc1Cl` [Example 43, 5-chloro-4-(((1R,2R)-2-(ethylamino)cyclohexyl)oxy)-2-fluoro-N-(thiazol-2-yl)benzenesulfonamide], for which the IC50 under setting [1] amounted to 1130 nM.

Consider `Cc1csc(NS(=O)(=O)c2cc(Cl)c(N[C@H]3CCCC[C@@H]3N(C)C)cc2F)n1` [Example 27, 5-chloro-4-(((1 S,2S)-2-(dimethylamino)cyclohexyl)amino)-2-fluoro-N-(4-methylthiazol-2-yl)benzenesulfonamide formate], for which, under setting [2], the IC50 was 149 nM.

On to `CN(C)[C@H]1CCCC[C@@H]1Nc1cc(F)c(S(=O)(=O)Nc2cccc(Cl)n2)cc1Cl` [Example 85, 5-chloro-N-(6-chloropyridin-2-yl)-4-(((1S,2S)-2-(dimethylamino)cyclohexyl)amino)-2-fluorobenzenesulfonamide], for which, under setting [1], the IC50 turned out to be 252 nM.

For the compound `CCCN(C)[C@H]1CCCC[C@@H]1Nc1cc(F)c(S(=O)(=O)Nc2nccs2)cc1Cl` [Example 29, 5-chloro-2-fluoro-4-(((1S,2S)-2-(methyl(propyl)amino)cyclohexyl)amino)-N-(thiazol-2-yl)benzenesulfonamide], under setting [1], the IC50 stood at 60.1 nM.

In the case of `CN(C)[C@H]1CCCC[C@@H]1Nc1cc(F)c(S(=O)(=O)Nc2nccs2)cc1Br` [Example 14, 5-bromo-4-[[(1S,2S)-2-(dimethylamino)cyclohexyl]amino]-2-fluoro-N-thiazol-2-yl-benzenesulfonamide], under setting [2], the IC50 was 21.9 nM.

Turning to `CN(C)[C@H]1CCCC[C@@H]1Nc1cc(F)c(S(=O)(=O)Nc2nccs2)cc1C1CCC1` [Example 91, 5-cyclobutyl-4-(((1S,2S)-2-(dimethylamino)cyclohexyl)amino)-2-fluoro-N-(thiazol-2-yl)benzenesulfonamide], the IC50 under setting [1] was 13 nM.

Regarding `O=S(=O)(Nc1nccs1)c1cc(Cl)c(N[C@H]2CCCC[C@@H]2N2CCC2)cc1F` [Example 21, 4-(((1S,2S)-2-(azetidin-1-yl)cyclohexyl)amino)-5-chloro-2-fluoro-N-(thiazol-2-yl)benzenesulfonamide], the IC50 under setting [2] is 214 nM.

`CN(C1CC1)[C@H]1CCCC[C@@H]1Nc1cc(F)c(S(=O)(=O)Nc2nccs2)cc1Cl` [Example 19, 5-chloro-4-[[(1S,2S)-2-[cyclopropyl(methyl)amino]cyclohexyl]amino]-2-fluoro-N-thiazol-2-yl-benzenesulfonamide]: the IC50 under setting [2] was 45.1 nM.

“5-chloro-4-(((1 S,2S)-2-(ethylamino)cyclohexyl)amino)-2-fluoro-N-(pyrimidin-4-yl)benzenesulfonamide [Example 22]”: the IC50 under setting [2] came out at 95.1 nM.

For `CN(C)[C@H]1CCC[C@@H]1Oc1cc(F)c(S(=O)(=O)Nc2nccs2)cc1Cl` [Example 9, 5-chloro-4-(((1S,2S)-2-(dimethylamino)cyclopentyl)oxy)-2-fluoro-N-(thiazol-2-yl)benzenesulfonamide], the IC50 under setting [2] was 3000 nM.

In the case of `CN(CCO)[C@H]1CCCC[C@@H]1Nc1cc(F)c(S(=O)(=O)Nc2cccc(F)n2)cc1Cl` [Example 72, 5-chloro-2-fluoro-N-(6-fluoropyridin-2-yl)-4-(((1S,2S)-2-((2-hydroxyethyl)(methyl)amino)cyclohexyl)amino)benzenesulfonamide], the IC50 under setting [1] turned out to be 14.8 nM.

Regarding `O=S(=O)(Nc1nccs1)c1cc(Cl)c(N[C@H]2CCCC[C@@H]2N2CC[C@H](O)C2)cc1F` [Example 67, 5-chloro-2-fluoro-4-(((1S,2S)-2-((S)-3-hydroxypyrrolidin-1-yl)cyclohexyl)amino)-N-(thiazol-2-yl)benzenesulfonamide], under setting [1], the IC50 turned out to be 17.3 nM.

For the compound `CN[C@H]1CCCC[C@@H]1Nc1cc(F)c(S(=O)(=O)Nc2cccc(F)n2)cc1Cl` [Example 74, 5-chloro-2-fluoro-N-(6-fluoropyridin-2-yl)-4-(((1S,2S)-2-(methylamino)cyclohexyl)amino)benzenesulfonamide], the IC50 under setting [1] is 91.7 nM.

`CCN[C@H]1CCCC[C@@H]1Nc1cc(F)c(S(=O)(=O)Nc2nccs2)cc1Cl` [Example 4, 2,2,2-trifluoroacetate]: the IC50 under setting [2] amounted to 4.15 nM.

For the compound `CN(C)[C@@H]1CC[C@H](C(F)(F)F)C[C@H]1Nc1cc(F)c(S(=O)(=O)Nc2nccs2)cc1Cl` [Example 84, 5-chloro-4-(((1R,2R,5S)-2-(dimethylamino)-5-(trifluoromethyl)cyclohexyl)amino)-2-fluoro-N-(thiazol-2-yl)benzenesulfonamide], under setting [1], the IC50 was determined as 3000 nM.

For `CN(CCF)[C@H]1CCCC[C@@H]1Nc1cc(F)c(S(=O)(=O)Nc2nccs2)cc1Cl` [Example 37, 5-chloro-2-fluoro-4-(((1S,2S)-2-((2-fluoroethyl)(methyl)amino)cyclohexyl)amino)-N-(thiazol-2-yl)benzenesulfonamide formate], the IC50 under setting [1] was determined as 2.76 nM.

With `CCN[C@H]1CCCC[C@@H]1Nc1cc(F)c(S(=O)(=O)Nc2ccncn2)cc1C1CC1` [Example 100, 5-cyclopropyl-4-(((1S,2S)-2-(ethylamino)cyclohexyl)amino)-2-fluoro-N-(pyrimidin-4-yl)benzenesulfonamide], under setting [1], the IC50 was determined as 127 nM.

In the case of `CN(C)[C@H]1CCCC[C@@H]1Oc1cc(F)c(S(=O)(=O)Nc2nccs2)cc1Cl` [Example 7, 5-chloro-4-(((1S,2S)-2-(dimethylamino)cyclohexyl)oxy)-2-fluoro-N-(thiazol-2-yl)benzenesulfonamide], the IC50 under setting [2] turned out to be 89.9 nM.

Take `CN(C)[C@H]1CCCC[C@@H]1Nc1ccc(S(=O)(=O)Nc2nccs2)cc1[N+](=O)[O-]` [Example 28, 4-(((1S,2S)-2-(dimethylamino)cyclohexyl)amino)-3-nitro-N-(thiazol-2-yl)benzenesulfonamide]: the IC50 under setting [1] worked out at 199 nM.

As to `CN[C@H]1CCCC[C@@H]1Nc1cc(F)c(S(=O)(=O)Nc2nccs2)cc1Cl` [Example 3, 5-chloro-2-fluoro-4-(((1S,2S)-2-(methylamino)cyclohexyl)amino)-N-(thiazol-2-yl)benzenesulfonamide 2,2,2-trifluoroacetate], the IC50 under setting [2] turned out to be 16 nM.

Regarding `CN(C)[C@H]1CCCC[C@@H]1Nc1cc(F)c(S(=O)(=O)Nc2ccncn2)cc1Cl` [Example 11, 5-chloro-4-(((1S,2S)-2-(dimethylamino)cyclohexyl)amino)-2-fluoro-N-(pyrimidin-4-yl)benzenesulfonamide], the IC50 under setting [2] was 126 nM.

In the case of `CCN(CC)[C@H]1CCCC[C@@H]1Nc1cc(F)c(S(=O)(=O)Nc2nccs2)cc1Cl` [Example 17, 5-chloro-4-[[(1S,2S)-2-(diethylamino)cyclohexyl]amino]-2-fluoro-N-thiazol-2-yl-benzenesulfonamide], the IC50 under setting [2] amounted to 237 nM.

As for `CN(C)[C@H]1CCCC[C@@H]1Nc1cc(F)c(S(=O)(=O)Nc2ncc(Cl)s2)cc1Cl` [Example 26, 5-chloro-N-(5-chlorothiazol-2-yl)-4-(((1 S,2S)-2-(dimethylamino)cyclohexyl)amino)-2-fluorobenzenesulfonamide], the IC50 under setting [2] stood at 41.5 nM.

Consider `O=S(=O)(Nc1nccs1)c1cc(Cl)c(N[C@H]2CCCC[C@@H]2N2CCCCC2)cc1F` [Example 70, 5-chloro-2-fluoro-4-(((1S,2S)-2-(piperidin-1-yl)cyclohexyl)amino)-N-(thiazol-2-yl)benzenesulfonamide formate], for which, under setting [1], the IC50 was 3.46 nM.
